# Like-named read-outs stand apart in the source and are kept apart here.
# Legend:
# [1] = Dog pharmacokinetic study; type: in vivo, beagle dog; details: for clearance / Vd / AUC(0-t) / Cmax / bioavailability / CL / VSS / AUC0-24 h / Oral BA (F %): beagle dog; for clearance / Vd / CL / VSS: 1 mg/kg, iv; for Vd: read-out: VSS; for AUC(0-t) / Cmax / bioavailability / AUC0-24 h / Oral BA (F %): 10 mg/kg, po; for AUC(0-t): read-out: AUC0-24 h; for bioavailability: read-out: Oral BA (F %)
# Method: 4. Dog Pharmacokinetic Study
# The purpose of this study was to evaluate the pharmacokinetic properties of compounds in beagle dog following single dose administration. The day before administration, dogs were fasted overnight and free access to water. Four beagle dogs were needed for each compound and the four dogs were divided into two groups (one male (♂) and one female (♀) in each group). Dogs in group A were treated with a single 1 mg/kg dose of compound (iv). Dogs in group B were treated with a single 10 mg/kg dose of compound (po). For dogs in group A, blood samples were collected at pre-dose, and at the time point of 0.083, 0.25, 0.5, 1, 2, 4, 6, 8 and 24 h. For dogs in group B, blood samples were collected at pre-dose, and at the time point of 0.25, 0.5, 1, 2, 4, 6, 8 and 24 h post-dose. Blood samples were placed on ice until centrifugation to obtain plasma samples. The plasma samples were stored at −80° C. until analysis. The concentration of compound in plasma samples were determined using a LC-MS/MS method.
# [2] = tested on: NCI-H358 cells expressing KRAS G12C; assay: Phospho-ERK1/2(THR202/TYR204) HTRF assay; type: cell-based; details: 2 hours incubation, read-out: p-ERK IC50
# Method: NCI-H358 cells expressing KRAS G12C were cultured in RPMI 1640 medium (Gibco) containing 10% fetal bovine serum (Gibco). The NCI-H358 cells in culture medium were seeded in 96-well plates at a concentration of 40,000 cells/well and then put in a 37° C./5% CO2 cell incubator to incubate overnight. The next day, culture medium was removed and the compound diluted in assay medium (RPMI 1640, 0.1% FBS) was added in each well. After 2 hours incubation in a 37° C./5% CO2 cell incubator, the assay medium in 96-well plates was removed, then 50 μL of 1× blocking reagent-supplemented lysis buffer (Cisbio) was added and the plates were incubated at 25° C. for 45 min with shaking. 10 μL of cell lysates from the 96-well plates were transferred to a 384-well plate (Greiner) containing 2.5 μL/well HTRF® pre-mixed antibodies (Cisbio 64AERPEH). Incubate 4 hours at 25° C. and then read HTRF signals on Tecan Spark multimode microplate reader. The data were analyzed using a 4-parameter logistic model to calculate IC50 values.
# [3] = Mouse pharmacokinetic study; type: in vivo, Balb/c mouse; details: plasma, Balb/c mouse (female); for clearance / Vd: 3 mg/kg, iv; for Vd: read-out: Vss; for Cmax / AUC(0-t) / bioavailability: 10 mg/kg, po; for AUC(0-t): read-out: AUC0-24 h; for bioavailability: read-out: Oral BA (F %)
# Method: 3. Mouse Pharmacokinetic Study
# The purpose of this study was to evaluate the pharmacokinetic properties of compounds in Balb/c mouse (♀) following single dose administration. The day before administration, mice were fasted overnight and free access to water. Six mice were needed for each compound and the six mice were divided into two groups (n=3/group), group A and group B. Mice in group A were treated with a single 3 mg/kg dose of compound (iv). Mice in group B were treated with a single 10 mg/kg dose of compound (po). For each mouse in group A, blood samples were collected at pre-dose, and at the time point of 0.083, 0.25, 0.5, 1, 2, 4, 6, 8 and 24 h post-dose. For each mouse in group B, blood samples were collected at pre-dose, and at the time point of 0.25, 0.5, 1, 2, 3, 4, 6, 8 and 24 h post-dose. Blood samples were placed on ice until centrifugation to obtain plasma samples. The plasma samples were stored at −80° C. until analysis. The concentration of compound in plasma samples were determined using a LC-MS/MS method.
# [4] = tested on: HIS-KRAS (G12C); type: biochemical; details: read-out: SOS1 catalyzed nucleotide exchange IC50
# [5] = Cynomolgus monkey pharmacokinetic study; type: in vivo; details: for CL / VSS / AUC0-24 h / Cmax / Oral BA (F %): Cynomolgus monkey; for CL / VSS: 1 mg/kg, iv; for AUC0-24 h / Cmax / Oral BA (F %): 3 mg/kg, po
# Method: 5. Cynomolgus Monkey Pharmacokinetic Study
# The purpose of this study was to evaluate the pharmacokinetic properties of compounds in Cynomolgus monkey following single dose administration. The day before administration, monkeys were fasted overnight and free access to water. Four monkeys are needed for each compound and the four monkeys were divided into two groups (one male(♂) and one female (♀) in each group), group A and group B. Monkeys in group A were treated with a single 1 mg/kg dose of compound (iv). Monkeys in group B were treated with a single 3 mg/kg dose of compound (po). For monkeys in group A, blood samples were collected at pre-dose, and at the time point of 0.083, 0.25, 0.5, 1, 2, 4, 6, 8 and 24 h. For monkeys in group B, blood samples were collected at pre-dose, and at the time point of 0.25, 0.5, 1, 2, 4, 6, 8 and 24 h post-dose. Blood samples were placed on ice until centrifugation to obtain plasma samples. The plasma samples were stored at −80° C. until analysis. The concentration of compound in plasma samples were determined using a LC-MS/MS method.
# [6] = tested on: NCI-H1373 cells; assay: Efficacy in NCI-H1373 xenograft model; type: in vivo, BALB/c nude mice
# Method: 6. The Efficacy in NCI-H1373 Xenograft Model
# NCI-H1373 cells (5.0E+06 cells) were injected subcutaneously into the right flank of female BALB/c nude mice (6-8 weeks) in a mixture with PBS and Matrigel (Corning) (PBS/Matrigel=1:1 (v/v)). Mice were monitored daily and caliper measurements began when tumors became visible. Tumor volume was calculated by measuring two perpendicular diameters using the formula: (L*W^2)/2 in which L and W refer to the length and width tumor diameter, respectively. When the average tumor volume reached 150-200 mm^3, mice were grouped randomly (n=6/group) and treated with compounds. Tumor volume and mice weight was measured twice a week during treatment (˜ 3 weeks). […] The results are in the following Table 13 and FIG. 8: […]
# [7] = Safety exploration in MIA PaCa-2 xenograft model; type: in vivo; details: MIA PaCa-2 xenograft mice, 400 mg/kg, po, QD, 22 days
# Method: 7. Safety Exploration in MIA PaCa-2 xenograft Model
# . Mice were monitored daily and caliper measurements began when tumors became visible. Tumor volume was calculated by measuring two perpendicular diameters using the following formula: (L*W^2)/2 in which L and W refer to the length and width tumor diameter, respectively. After mice were grouped to study the efficacy, the remaining mice (n=6) were used to explore the safety. The mice were treated with 400 mg/kg compound 1-2 (po, QD) for 22 days, and mice body weight was measured twice a week during treatment. […]
compound,measurement,setting,value
"C=CC(=O)N1CCN(c2c(C#N)c(=O)n(-c3c(C)ccnc3C(C)C)c3nc(-c4ccccc4F)c(Cl)cc23)CC1 [Amgen 6, 4-(4-acryloylpiperazin-1-yl)-6-chloro-7-(2-fluorophenyl)-1-(2-isopropyl-4-methylpyridin-3-yl)-2-oxo-1,2-dihydro-1,8-naphthyridine-3-carbonitrile]",clearance,"[1]; plasma, female",15.5 mL/min/kg
same,Vd,"[1]; plasma, female",0.543 L/kg
same,AUC(0-t),"[1]; plasma, female",1330 ng·h/mL
same,Cmax,"[1]; plasma, female, read-out: Cmax",2580 ng/mL
same,bioavailability,"[1]; plasma, female",12.4%
same,clearance,"[1]; plasma, male",11.8 mL/min/kg
same,Vd,"[1]; plasma, male",0.412 L/kg
same,AUC(0-t),"[1]; plasma, male",2940 ng·h/mL
same,Cmax,"[1]; plasma, male, read-out: Cmax",3690 ng/mL
same,bioavailability,"[1]; plasma, male",20.9%
same,IC50,[2]; Homo sapiens,29.9 nM
same,clearance,[3],72 mL/min/kg
same,Vd,[3],2.6 L/kg
same,Cmax,[3],901 ng/mL
same,AUC(0-t),[3],1030 ng·h/mL
same,bioavailability,[3],44%
"C=CC(=O)N1CCN(c2c(C#N)c(=O)n(-c3c(C)ccnc3C(C)C)c3nc(-c4c(N)c(F)c(F)c(F)c4F)c(Cl)cc23)CC1 (atropisomer, axis not shown; (P)) [Compound 1-1, (P)-4-(4-acryloylpiperazin-1-yl)-7-(2-amino-3,4,5,6-tetrafluorophenyl)-6-chloro-1-(2-isopropyl-4-methylpyridin-3-yl)-2-oxo-1,2-dihydro-1,8-naphthyridine-3-carbonitrile]",IC50,[2],176 nM
same,IC50,[4],14.1 nM
"C=CC(=O)N1CCN(c2c(C#N)c(=O)n(-c3c(C)ccnc3C(C)C)c3nc(-c4c(N)c(F)c(F)c(F)c4F)c(Cl)cc23)CC1 (atropisomer, axis not shown; (M)) [Compound 1-2, (M)-4-(4-acryloylpiperazin-1-yl)-7-(2-amino-3,4,5,6-tetrafluorophenyl)-6-chloro-1-(2-isopropyl-4-methylpyridin-3-yl)-2-oxo-1,2-dihydro-1,8-naphthyridine-3-carbonitrile]",Pharmacokinetic properties (in words),"[1]; beagle dog model, compared with Amgen 6 and 6.3",excellent pharmacokinetic properties
same,CL,[1]; female,18.1 mL/min/kg
same,VSS,[1]; female,1.1 L/kg
same,AUC0-24 h,[1]; female,5953 ng·h/mL
same,Cmax,[1]; female,2980 ng/mL
same,Oral BA (F %),[1]; female,65.1%
same,CL,[1]; male,15.9 mL/min/kg
same,VSS,[1]; male,0.9 L/kg
same,AUC0-24 h,[1]; male,6724 ng·h/mL
same,Cmax,[1]; male,3420 ng/mL
same,Oral BA (F %),[1]; male,64.3%
same,CL,[5]; female,7.19 mL/min/kg
same,VSS,[5]; female,0.86 L/kg
same,AUC0-24 h,[5]; female,6854 ng·h/mL
same,Cmax,[5]; female,2680 ng/mL
same,Oral BA (F %),[5]; female,98.9%
same,CL,[5]; male,5.25 mL/min/kg
same,VSS,[5]; male,0.61 L/kg
same,AUC0-24 h,[5]; male,7938 ng·h/mL
same,Cmax,[5]; male,2030 ng/mL
same,Oral BA (F %),[5]; male,83.5%
same,Pharmacokinetic properties (in words),[5]; monkey model,excellent pharmacokinetic properties
same,TGI %,"[6]; 10 mg/kg, QD, Day 21",103%
same,Tumor volume at the end (Day 21),"[6]; 10 mg/kg, QD, start volume 193 mm^3",144 mm^3
same,Efficacy in vivo (in words),[6]; Table 13 and FIG. 8,excellent efficacy in vivo
same,IC50,[2],10.2 nM
same,"Safety (mice body weight, FIG. 9)",[7],good safety
"C=CC(=O)N1CCN(c2c(C#N)c(=O)n(-c3c(C(C)C)ncnc3C(C)C)c3nc(-c4c(N)cccc4F)c(Cl)cc23)CC1 [Amgen 6.3, 4-(4-acryloylpiperazin-1-yl)-7-(2-amino-6-fluorophenyl)-6-chloro-1-(4,6-diisopropylpyrimidin-5-yl)-2-oxo-1,2-dihydro-1,8-naphthyridine-3-carbonitrile]",clearance,"[1]; plasma, female",329 mL/min/kg
same,Vd,"[1]; plasma, female",3.1 L/kg
same,clearance,"[1]; plasma, male",239 mL/min/kg
same,Vd,"[1]; plasma, male",2.3 L/kg
same,AUC(0-t),"[1]; plasma, male",5.1 ng·h/mL
same,Cmax,"[1]; plasma, male, read-out: Cmax",8 ng/mL
same,bioavailability,"[1]; plasma, male",0.7%
same,IC50,[2]; Homo sapiens,20.1 nM
same,IC50,"[4]; GDP-loaded HIS-KRAS (G12C), 1 hour pre-incubation with compound, TR-FRET",2.77 nM
same,clearance,[3],32 mL/min/kg
same,Vd,[3],1.4 L/kg
same,Cmax,[3],1590 ng/mL
same,AUC(0-t),[3],1660 ng·h/mL
same,bioavailability,[3],32%

# — patent US12195473B2, “KRAS mutant protein inhibitors” (JACOBIO PHARMACEUTICALS CO., LTD, priority 2019, dated 2025)
